Data from patent US20230303549A1, “SUBSTITUTED HETEROARYLOXYPYRIDINES, THE SALTS THEREOF AND THEIR USE AS HERBICIDAL AGENTS” (Bayer Aktiengesellschaft, priority 2020, published 2023).

Assays:
Type in all cases: in vivo
[1] = test system: Echinochloa crus-galli (ECHCG); test: Pre-emergence herbicide efficacy at 320 g/ha, greenhouse pot test; settings: visual scoring vs untreated control after about 3 weeks
How it was run: (§1)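 Visual percent activity versus untreated controls, rated roughly 3 weeks post-treatment in greenhouse (0% = like control, 100% = dead). Pre-emergence application to covering sandy loam soil as aqueous suspension/emulsion, 600 L/ha, plus 0.5% additive.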

[2] = test system: Abutilon theophrasti (ABUTH); test: as above; settings: visual scoring vs untreated control after about 3 weeks
How it was run: as §1

Lolium rigidum (LOLRI) = test: as above; settings: visual scoring vs untreated control after about 3 weeks
How it was run: as §1

Setaria viridis (SETVI) [3] = test: as above; settings: visual scoring vs untreated control after about 3 weeks
How it was run: as §1

Bassia scoparia (KCHSC) [4] = test: as above
How it was run: as §1

[5] = test system: Amaranthus retroflexus (AMARE); test: as above; settings: visual scoring vs untreated control after about 3 weeks
How it was run: as §1

Stellaria media (STEME) [6] = test: as above; settings: visual scoring vs untreated control after about 3 weeks
How it was run: as §1

Poa annua (POAAN) [7] = test: as above; settings: visual scoring vs untreated control after about 3 weeks
How it was run: as §1

[8] = test system: Matricaria inodora (MATIN); test: as above; settings: visual scoring vs untreated control after about 3 weeks
How it was run: as §1

Veronica persica (VERPE) [9] = test: as above; settings: visual scoring vs untreated control after about 3 weeks
How it was run: as §1

[10] = test system: Digitaria sanguinalis (DIGSA); test: as above; settings: visual scoring vs untreated control after about 3 weeks
How it was run: as §1

[11] = test system: Alopecurus myosuroides (ALOMY); test: Post-emergence herbicidal efficacy at 80 g/ha, greenhouse pot test; settings: visual rating vs untreated control after about 3 weeks
How it was run: (§2)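 Sown in sandy loam, treated 2–3 weeks after sowing at one-leaf stage with WP or EC formulations sprayed post-emergence in water (600 l/ha) plus 0.5% additive. Kept in greenhouse ~3 weeks, then activity scored visually vs untreated controls (100% = plants dead, 0% = like control).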

Viola tricolor (VIOTR) [12] = test: as above; settings: visual rating vs untreated control after about 3 weeks
How it was run: as §2

[13] = test system: Abutilon theophrasti (ABUTH); test: Pre-emergence herbicide efficacy at 80 g/ha, greenhouse pot test; settings: visual scoring vs untreated control after about 3 weeks
How it was run: (§3)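 Seeds were sown in pots and covered with soil, then the compound (WP or EC formulation) was sprayed onto the soil surface as an aqueous suspension or emulsion with 0.5% additive. Pots were kept in a greenhouse, and after about 3 weeks activity was scored visually versus untreated controls (100% = plants dead, 0% = like control).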

[14] = test system: Polygonum convolvulus (POLCO); test: as above; settings: visual scoring vs untreated control after about 3 weeks
How it was run: as §3

[15] = test system: Amaranthus retroflexus (AMARE); test: as above; settings: visual scoring vs untreated control after about 3 weeks
How it was run: as §3

[16] = test system: Matricaria inodora (MATIN); test: as above; settings: visual scoring vs untreated control after about 3 weeks
How it was run: as §3

[17] = test system: Digitaria sanguinalis (DIGSA); test: as above; settings: visual scoring vs untreated control after about 3 weeks
How it was run: as §3

Viola tricolor (VIOTR) [18] = test: as above; settings: visual scoring vs untreated control after about 3 weeks
How it was run: as §3

Poa annua (POAAN) [19] = test: Post-emergence herbicidal efficacy at 320 g/ha, greenhouse pot test; settings: visual rating vs untreated control after about 3 weeks
How it was run: (§4)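 Weeds sown in sandy loam and grown in greenhouse, sprayed at one-leaf stage (2–3 weeks after sowing) with WP or EC formulations plus 0.5% additive in 600 L/ha water. Visual activity rated after about 3 weeks against untreated controls (100% = plants dead, 0% = like control).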

Veronica persica (VERPE) [20] = test: as above; settings: 320 g/ha, visual rating vs untreated control after about 3 weeks
How it was run: as §4

[21] = test system: Digitaria sanguinalis (DIGSA); test: as above; settings: visual rating vs untreated control after about 3 weeks
How it was run: as §4

[22] = test system: Alopecurus myosuroides (ALOMY); test: Pre-emergence herbicide efficacy at 320 g/ha, greenhouse pot test; settings: visual scoring vs untreated control after about 3 weeks
How it was run: as §1

Setaria viridis (SETVI) [23] = test: Post-emergence herbicidal efficacy at 80 g/ha, greenhouse pot test; settings: visual rating vs untreated control after about 3 weeks
How it was run: as §2

[24] = test system: Amaranthus retroflexus (AMARE); test: as above; settings: visual rating vs untreated control after about 3 weeks
How it was run: as §2

[25] = test system: Echinochloa crus-galli (ECHCG); test: Pre-emergence herbicide efficacy at 80 g/ha, greenhouse pot test; settings: visual scoring vs untreated control after about 3 weeks
How it was run: as §3

Setaria viridis (SETVI) [26] = test: as above; settings: visual scoring vs untreated control after about 3 weeks
How it was run: as §3

Veronica persica (VERPE) [27] = test: as above; settings: visual scoring vs untreated control after about 3 weeks
How it was run: as §3

[28] = test system: Abutilon theophrasti (ABUTH); test: Post-emergence herbicidal efficacy at 320 g/ha, greenhouse pot test; settings: visual rating vs untreated control after about 3 weeks
How it was run: as §4

Bassia scoparia (KCHSC) [29] = test: as above; settings: visual rating vs untreated control after about 3 weeks
How it was run: as §4

[30] = test system: Amaranthus retroflexus (AMARE); test: as above; settings: visual rating vs untreated control after about 3 weeks
How it was run: as §4

Stellaria media (STEME) [31] = test: as above; settings: visual rating vs untreated control after about 3 weeks
How it was run: as §4

SMILES	Pre-emergence efficacy against Echinochloa crus-galli (ECHCG) [1] [%]	Pre-emergence efficacy against Abutilon theophrasti (ABUTH) [2] [%]	Pre-emergence efficacy against Setaria viridis (SETVI) (Setaria viridis (SETVI) [3]) [%]	Pre-emergence efficacy against Amaranthus retroflexus (AMARE) [5] [%]	Pre-emergence efficacy against Stellaria media (STEME) (Stellaria media (STEME) [6]) [%]	Pre-emergence efficacy against Poa annua (POAAN) (Poa annua (POAAN) [7]) [%]	Pre-emergence efficacy against Matricaria inodora (MATIN) [8] [%]	Pre-emergence efficacy against Veronica persica (VERPE) (Veronica persica (VERPE) [9]) [%]	Pre-emergence efficacy against Abutilon theophrasti (ABUTH) [13] [%]	Pre-emergence efficacy against Polygonum convolvulus (POLCO) [14] [%]	Pre-emergence efficacy against Amaranthus retroflexus (AMARE) [15] [%]	Pre-emergence efficacy against Viola tricolor (VIOTR) (Viola tricolor (VIOTR) [18]) [%]	Post-emergence efficacy against Poa annua (POAAN) (Poa annua (POAAN) [19]) [%]	Post-emergence efficacy against Veronica persica (VERPE) (Veronica persica (VERPE) [20]) [%]	also measured
Cc1cc(C)c(-c2cc(C(F)F)on2)c(Oc2ncc(Cl)cn2)n1 [Example I-10]	100	100	90	100	100	90	100	100	90	90	90	100	100	90	Pre-emergence efficacy against Lolium rigidum (LOLRI) (Lolium rigidum (LOLRI)): 90%; Pre-emergence efficacy against Bassia scoparia (KCHSC) (Bassia scoparia (KCHSC) [4]; 320 g/ha, visual scoring vs untreated control after about 3 weeks): 90%; Pre-emergence efficacy against Digitaria sanguinalis (DIGSA) [10]: 90%; Post-emergence efficacy against Alopecurus myosuroides (ALOMY) [11]: 80%; Post-emergence efficacy against Viola tricolor (VIOTR) (Viola tricolor (VIOTR) [12]): 100%; Pre-emergence efficacy against Matricaria inodora (MATIN) [16]: 90%; Pre-emergence efficacy against Digitaria sanguinalis (DIGSA) [17]: 90%; Post-emergence efficacy against Digitaria sanguinalis (DIGSA) [21]: 100%
Cc1cc(C)c(-c2cc(C(F)F)no2)c(Oc2ncc(C(F)(F)F)cn2)n1 [Example I-45]	100	100	100	100	100	100	100	100	90	80	100	90	100	100	Pre-emergence efficacy against Bassia scoparia (KCHSC) (Bassia scoparia (KCHSC) [4]; dosage 1280 g/ha in Table C6, visual scoring after about 3 weeks): 100%; Pre-emergence efficacy against Alopecurus myosuroides (ALOMY) [22]: 100%; Post-emergence efficacy against Setaria viridis (SETVI) (Setaria viridis (SETVI) [23]): 80%; Post-emergence efficacy against Amaranthus retroflexus (AMARE) [24]: 80%; Pre-emergence efficacy against Echinochloa crus-galli (ECHCG) [25]: 80%; Pre-emergence efficacy against Setaria viridis (SETVI) (Setaria viridis (SETVI) [26]): 90%; Pre-emergence efficacy against Veronica persica (VERPE) (Veronica persica (VERPE) [27]): 80%; Post-emergence efficacy against Abutilon theophrasti (ABUTH) [28]: 90%; Post-emergence efficacy against Bassia scoparia (KCHSC) (Bassia scoparia (KCHSC) [29]): 90%; Post-emergence efficacy against Amaranthus retroflexus (AMARE) [30]: 100%; Post-emergence action against Stellaria media (STEME) (Stellaria media (STEME) [31]): 100%
